Assay results taken from PubChem BioAssay AID2060492 (Molecular Pharmacology Branch, DTP, NCI, 2025).

Tested on: 695427-040-R-J1-PDC complex spheroids, viability percent T/C
Assay: Anticancer human tumor 695427-040-R-J1-PDC patient-derived colon adenocarcinoma cell line growth inhibition [GQUAD]
Settings: for IC50: curve of first compound; for viability, T/C: stronger effect = lower value
Summary of the method: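 Multi-cell-type spheroids of tumor cells with HUVEC and mesenchymal stem cells, treated with drug combinations. Concentrations descend in half-log steps from near clinical Cmax, or from 10 microM where Cmax is unknown; viability read-out.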

[1] = second compound 0.0316 µM, first compound 0.0316 µM
[2] = second compound 0.0316 µM, first compound 0.1 µM
[3] = second compound 0.0316 µM, first compound 0.316 µM
[4] = second compound 0.0316 µM, first compound 1 µM
[5] = second compound 0.0316 µM, first compound 3.16 µM
[6] = second compound 0.0316 µM, first compound 10 µM
[7] = second compound 0.1 µM, first compound 0.0316 µM
[8] = second compound 0.1 µM, first compound 0.1 µM
[9] = second compound 0.1 µM, first compound 0.316 µM
[10] = second compound 0.1 µM, first compound 1 µM
[11] = second compound 0.1 µM, first compound 3.16 µM
[12] = second compound 0.1 µM, first compound 10 µM
[13] = second compound 0.316 µM, first compound 0.0316 µM
[14] = second compound 0.316 µM, first compound 0.1 µM
[15] = second compound 0.316 µM, first compound 0.316 µM
[16] = second compound 0.316 µM, first compound 1 µM
[17] = second compound 0.316 µM, first compound 3.16 µM
[18] = second compound 0.316 µM, first compound 10 µM
[19] = second compound 1 µM, first compound 0.0316 µM
[20] = second compound 1 µM, first compound 0.1 µM
[21] = second compound 1 µM, first compound 0.316 µM
[22] = second compound 1 µM, first compound 1 µM
[23] = second compound 1 µM, first compound 3.16 µM
[24] = second compound 1 µM, first compound 10 µM
[25] = second compound 3.16 µM, first compound 0.0316 µM
[26] = second compound 3.16 µM, first compound 0.1 µM
[27] = second compound 3.16 µM, first compound 0.316 µM
[28] = second compound 3.16 µM, first compound 1 µM
[29] = second compound 3.16 µM, first compound 3.16 µM
[30] = second compound 3.16 µM, first compound 10 µM
[31] = second compound 10 µM, first compound 0.0316 µM
[32] = second compound 10 µM, first compound 0.1 µM
[33] = second compound 10 µM, first compound 0.316 µM
[34] = second compound 10 µM, first compound 1 µM
[35] = second compound 10 µM, first compound 3.16 µM
[36] = second compound 10 µM, first compound 10 µM
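Also: spheroids exposed to compounds for seven days before readout.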

C=CC(=O)N1CCN(c2nc(=O)n(-c3c(C)ccnc3C(C)C)c3nc(-c4c(O)cccc4F)c(F)cc23)C(C)C1 (stereo unspecified) + CN(C)c1ccc(Nc2c3ccc(NC(=O)CCN4CCCC4)cc3nc3cc(NC(=O)CCN4CCCC4)ccc23)cc1 was tested, and the IC50 (second compound 0.0316 µM) was > 10 µM, the IC50 (second compound 0.1 µM) was > 10 µM and the IC50 (second compound 0.316 µM) was > 10 µM. The IC50 (second compound 1 µM) was > 10 µM, the IC50 (second compound 3.16 µM) was > 10 µM and the IC50 (second compound 10 µM) was > 10 µM. It also gave a viability, T/C [1] of 107%, a viability, T/C [2] of 109% and a viability, T/C [3] of 102%. The viability, T/C [4] was 104%, the viability, T/C [5] was 106% and the viability, T/C [6] was 112%. The viability, T/C [7] was 104%, the viability, T/C [8] was 95% and the viability, T/C [9] was 104%. It also gave a viability, T/C [10] of 94.6%, a viability, T/C [11] of 103% and a viability, T/C [12] of 110%. It also gave a viability, T/C [13] of 113%, a viability, T/C [14] of 113% and a viability, T/C [15] of 107%. The viability, T/C [16] was 102%, the viability, T/C [17] was 106% and the viability, T/C [18] was 108%. It also gave a viability, T/C [19] of 97.9%, a viability, T/C [20] of 106% and a viability, T/C [21] of 99.7%. It also gave a viability, T/C [22] of 107%, a viability, T/C [23] of 108% and a viability, T/C [24] of 107%. For the same compound, the viability, T/C [25] was 107%, the viability, T/C [26] was 90.9% and the viability, T/C [27] was 100%. It also gave a viability, T/C [28] of 98.5%, a viability, T/C [29] of 101% and a viability, T/C [30] of 100%. The viability, T/C [31] was 99.2%, the viability, T/C [32] was 89.7% and the viability, T/C [33] was 89.7%. The viability, T/C [34] was 92%, the viability, T/C [35] was 99.1% and the viability, T/C [36] was 90.6%.
With CC[C@@]1(O)C(=O)OCc2c1cc1n(c2=O)Cc2cc3c(CN(C)C)c(O)ccc3nc2-1 + CN(C)c1ccc(Nc2c3ccc(NC(=O)CCN4CCCC4)cc3nc3cc(NC(=O)CCN4CCCC4)ccc23)cc1 the IC50 (second compound 0.0316 µM) was > 0.316 µM, the IC50 (second compound 0.1 µM) was > 0.316 µM and the IC50 (second compound 0.316 µM) was > 0.316 µM. The IC50 (second compound 1 µM) was > 0.316 µM, the IC50 (second compound 3.16 µM) was > 0.316 µM and the IC50 (second compound 10 µM) was > 0.316 µM. For the same compound, the viability, T/C (second compound 0.0316 µM, first compound 0.000999 µM) was 109%, the viability, T/C (second compound 0.0316 µM, first compound 0.00316 µM) was 95% and the viability, T/C (second compound 0.0316 µM, first compound 0.00999 µM) was 108%. It also gave a viability, T/C [1] of 100%, a viability, T/C (second compound 0.0316 µM, first compound 0.0999 µM) of 104% and a viability, T/C [3] of 91.6%. The viability, T/C (second compound 0.1 µM, first compound 0.000999 µM) was 117%, the viability, T/C (second compound 0.1 µM, first compound 0.00316 µM) was 101% and the viability, T/C (second compound 0.1 µM, first compound 0.00999 µM) was 96.8%. The viability, T/C [7] was 101%, the viability, T/C (second compound 0.1 µM, first compound 0.0999 µM) was 98.9% and the viability, T/C [9] was 85%. The viability, T/C (second compound 0.316 µM, first compound 0.000999 µM) was 97.6%, the viability, T/C (second compound 0.316 µM, first compound 0.00316 µM) was 104% and the viability, T/C (second compound 0.316 µM, first compound 0.00999 µM) was 100%. It also gave a viability, T/C [13] of 111%, a viability, T/C (second compound 0.316 µM, first compound 0.0999 µM) of 100% and a viability, T/C [15] of 95.8%. It also gave a viability, T/C (second compound 1 µM, first compound 0.000999 µM) of 101%, a viability, T/C (second compound 1 µM, first compound 0.00316 µM) of 95.2% and a viability, T/C (second compound 1 µM, first compound 0.00999 µM) of 96.1%. The viability, T/C [19] was 99.9%, the viability, T/C (second compound 1 µM, first compound 0.0999 µM) was 97.8% and the viability, T/C [21] was 93.7%. It also gave a viability, T/C (second compound 3.16 µM, first compound 0.000999 µM) of 99.2%, a viability, T/C (second compound 3.16 µM, first compound 0.00316 µM) of 100% and a viability, T/C (second compound 3.16 µM, first compound 0.00999 µM) of 96.2%. The viability, T/C [25] was 103%, the viability, T/C (second compound 3.16 µM, first compound 0.0999 µM) was 110% and the viability, T/C [27] was 82.1%. The viability, T/C (second compound 10 µM, first compound 0.000999 µM) was 94.3%, the viability, T/C (second compound 10 µM, first compound 0.00316 µM) was 84.8% and the viability, T/C (second compound 10 µM, first compound 0.00999 µM) was 92.2%. It also gave a viability, T/C [31] of 88.3%, a viability, T/C (second compound 10 µM, first compound 0.0999 µM) of 91% and a viability, T/C [33] of 88.6%.
In the case of COc1cc(C2c3cc4c(cc3C(OC3OC5COC(C)OC5C(O)C3O)C3COC(=O)C23)OCO4)cc(OC)c1O (stereo unspecified) + CN(C)c1ccc(Nc2c3ccc(NC(=O)CCN4CCCC4)cc3nc3cc(NC(=O)CCN4CCCC4)ccc23)cc1, the IC50 (second compound 0.0316 µM) is reported as > 10 µM, the IC50 (second compound 0.1 µM) is reported as > 10 µM and the IC50 (second compound 0.316 µM) is reported as > 10 µM. For the same compound, the IC50 (second compound 1 µM) was > 10 µM, the IC50 (second compound 3.16 µM) was > 10 µM and the IC50 (second compound 10 µM) was > 10 µM. The viability, T/C [1] was 108%, the viability, T/C [2] was 90.1% and the viability, T/C [3] was 95.7%. The viability, T/C [4] was 97.8%, the viability, T/C [5] was 85.2% and the viability, T/C [6] was 80%. It also gave a viability, T/C [7] of 88.1%, a viability, T/C [8] of 91.6% and a viability, T/C [9] of 95.7%. The viability, T/C [10] was 83.5%, the viability, T/C [11] was 89.8% and the viability, T/C [12] was 76.9%. It also gave a viability, T/C [13] of 100%, a viability, T/C [14] of 91.5% and a viability, T/C [15] of 88.1%. The viability, T/C [16] was 89.2%, the viability, T/C [17] was 90.5% and the viability, T/C [18] was 76.7%. It also gave a viability, T/C [19] of 88.9%, a viability, T/C [20] of 97.4% and a viability, T/C [21] of 94.4%. The viability, T/C [22] was 93.3%, the viability, T/C [23] was 88.1% and the viability, T/C [24] was 72.6%. It also gave a viability, T/C [25] of 89.1%, a viability, T/C [26] of 90.9% and a viability, T/C [27] of 96.7%. It also gave a viability, T/C [28] of 90.3%, a viability, T/C [29] of 91% and a viability, T/C [30] of 76.5%. It also gave a viability, T/C [31] of 87.2%, a viability, T/C [32] of 77.4% and a viability, T/C [33] of 81.2%. The viability, T/C [34] was 80.8%, the viability, T/C [35] was 77.5% and the viability, T/C [36] was 66.4%.
